Drawing on PubChem BioAssay AID434951 (Broad Institute, 2010), this text covers EC50 for 91 compounds.

The source made the active and inactive calls.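 How the source made its calls: active means a fitted half-maximal concentration EC50 for the rise in nuclear signal no higher than ten times the top dose tested; inconclusive means flat fit with activity between 30% and 70%, or unusable fit; inactive means EC50 beyond ten times the top dose.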 Bounds are passed on as bounds.

The EC50 is the concentration that produces a half-maximal response.

Chain of Hypoxia-inducible factor 1-alpha (Homo sapiens) (Q16665 whole entry, looked up): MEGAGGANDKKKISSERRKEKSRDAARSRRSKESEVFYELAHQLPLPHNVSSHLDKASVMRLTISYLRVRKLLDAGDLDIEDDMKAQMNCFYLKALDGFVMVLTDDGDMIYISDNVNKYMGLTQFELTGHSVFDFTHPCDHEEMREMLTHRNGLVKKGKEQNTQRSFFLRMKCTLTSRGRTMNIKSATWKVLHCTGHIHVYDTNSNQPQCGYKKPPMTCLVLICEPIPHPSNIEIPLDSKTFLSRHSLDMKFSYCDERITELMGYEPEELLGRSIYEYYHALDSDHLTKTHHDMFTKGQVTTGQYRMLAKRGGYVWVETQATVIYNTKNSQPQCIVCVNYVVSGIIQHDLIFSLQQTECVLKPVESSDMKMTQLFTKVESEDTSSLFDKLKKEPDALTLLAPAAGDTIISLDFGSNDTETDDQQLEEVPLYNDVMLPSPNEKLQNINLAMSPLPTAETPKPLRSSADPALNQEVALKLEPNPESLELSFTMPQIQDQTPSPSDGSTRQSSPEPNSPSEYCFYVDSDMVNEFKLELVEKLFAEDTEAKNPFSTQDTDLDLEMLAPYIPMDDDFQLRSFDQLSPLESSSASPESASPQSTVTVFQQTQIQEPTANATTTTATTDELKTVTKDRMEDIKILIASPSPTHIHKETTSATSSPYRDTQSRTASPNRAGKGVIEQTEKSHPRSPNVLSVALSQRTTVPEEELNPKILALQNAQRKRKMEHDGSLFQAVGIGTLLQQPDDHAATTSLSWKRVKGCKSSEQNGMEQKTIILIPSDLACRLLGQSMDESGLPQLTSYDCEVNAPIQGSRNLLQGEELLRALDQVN

This experiment addresses Hypoxia-inducible factor 1-alpha (Homo sapiens) (UniProt Q16665). Nature of the experiment: activators of HIF1alpha nuclear accumulation, confirmation, imaging, fluorescence, U2OS GFP-HIF1alpha (AID 434951). The conditions noted are these: U2OS GFP-HIF1alpha nuclear intensity, high-content imaging.
`CCN(CC)CCNCc1nc2ccccc2c(=O)n1-c1ccc(F)cc1`: the EC50 is > 35 µM (inactive).

Regarding `Cc1ccc(Nc2nc(CSc3nnc(-c4ccncc4)n3C)cs2)cc1`, the EC50 is > 35 µM (inactive).

For `CCOc1ccc(C(=O)NCC2CCCO2)cc1OCC` (stereo unspecified), the EC50 is > 35 µM (inactive).

For `O=C(CSc1nc2ccccc2c(=O)n1-c1ccccc1)NC(=O)CN1CCCC1=O`, the EC50 was > 35 µM (inactive).

On to `CCCNC(=S)N1CCCC(c2nc3ccccc3[nH]2)C1` (stereo unspecified), for which the EC50 is > 35 µM (inactive).

As for `Cc1nc2nc(-c3ccco3)nn2c(C)c1Cl`, the EC50 is > 35 µM (inactive).

Turning to `Oc1ccc(Br)cc1/C=N/Nc1ccccn1`, the EC50 was 7.01 µM.

Take `CCC(=O)N1CCN(c2nc3ccc(Br)cc3s2)CC1`: the EC50 is > 35 µM (inactive).

For `CN(CC(=O)Nc1ccccc1Oc1ccccc1)Cc1ccccc1F`, the EC50 was > 35 µM (inactive).

Consider `Oc1cccc(/C=N/c2c(-c3ccco3)nc3ccccn23)c1`, for which the EC50 was > 35 µM (inactive).

`CN1CCC2(CC1)N=C(c1ccc(F)cc1)C(=S)N2C(=O)c1ccc(C(C)(C)C)cc1`: the EC50 is > 35 µM (inactive).

In the case of `Cc1nc([N+](=O)[O-])c(Br)n1Cc1ccc(Cl)c(Cl)c1`, the EC50 is > 35 µM (inactive).

Turning to `CCCCNC(=O)c1cc(-c2ccc(F)cc2)on1`, the EC50 is 9.23 µM.

In the case of `CCOC(=O)c1sc(Nc2cccc(Cl)c2)nc1C`, the EC50 was > 35 µM (inactive).

Consider `Cn1c(CCNC(=O)c2ccco2)nc2cc(NC(=O)C3CCCCC3)ccc21`, for which the EC50 is > 35 µM (inactive).

For the compound `CCOc1ccccc1N1CCN(C(=S)NC(=O)C23CC4CC(CC(C4)C2)C3)CC1`, the EC50 is > 35 µM (inactive).

As for `CCC(=O)NC(c1ccc(Cl)cc1Cl)c1ccc2cccnc2c1O` (stereo unspecified), the EC50 was 6.22 µM.

In the case of `CCCCCCN1C=CC=C/C1=C/C=C(C#N)C#N`, the EC50 is > 35 µM (inactive).

On to `Cc1cc(SCC(=O)N/N=C/c2ccc(O)c(O)c2O)c(C)cc1Br`, for which the EC50 is > 35 µM (inactive).

Take `Cc1ccc(NC(=O)Nc2cccc(F)c2)nc1`: the EC50 is > 35 µM (inactive).

For the compound `Cc1ccccc1-n1c(=O)n(Cc2ccc(C(=O)O)cc2)c(=O)c2[nH]cnc21`, the EC50 was > 35 µM (inactive).

As for `O=C(CSC1=NNC(c2ccccn2)S1)Nc1ccc(C(F)(F)F)cc1` (stereo unspecified), the EC50 is 10.4 µM.

Turning to `COc1ccccc1CCNS(=O)(=O)c1cc2c3c(c1)C(C)C(=O)N3CCC2` (stereo unspecified), the EC50 was > 35 µM (inactive).

`CC(C)c1nc(CNC(=O)CCc2nnc(-c3ccsc3)o2)cs1`: the EC50 is > 35 µM (inactive).

With `O=C(N/N=C/c1cc(Br)cc(Br)c1O)c1ccncc1`, the EC50 was > 35 µM (inactive).

On to `COc1ccc(OC)c2sc(N3CCN(C(=O)c4ccc5ncsc5c4)CC3)nc12`, for which the EC50 is > 35 µM (inactive).

As to `COc1cccc(/C=N/Nc2ncnc3scc(-c4ccccc4)c23)c1O`, the EC50 was 1.27 µM.

In the case of `C(=N\Nc1nc2ccccc2[nH]1)/c1cccc2nccnc12`, the EC50 was 15.8 µM.

As to `COc1cccc(/C=N/Nc2ccc([N+](=O)[O-])cn2)c1O`, the EC50 is 4.93 µM.

As for `COC(=O)CCCC1=CC2=CC(=O)C(C)(OC(=O)c3cccs3)C(=O)C2=CN1Cc1ccc2c(c1)OCO2` (stereo unspecified), the EC50 is > 35 µM (inactive).

With `COc1ccc(CNS(=O)(=O)c2cc3c4c(c2)C(C)C(=O)N4CCC3)cc1` (stereo unspecified), the EC50 was > 35 µM (inactive).

For the compound `CCCCC(=O)N1CCN(c2nc3ccc(F)cc3s2)CC1`, the EC50 is > 35 µM (inactive).

Consider `Cc1cc(/C=N/n2c(COc3ccccc3)nc3ccccc3c2=O)c(O)c([N+](=O)[O-])c1`, for which the EC50 is 24.5 µM.

`O=C(CS(=O)(=O)c1ccccc1)Nc1ccc(N2CCOCC2)cc1`: the EC50 is > 35 µM (inactive).

`CCCCCCCCCS(=O)(=O)N/N=C/c1cccc([N+](=O)[O-])c1`: the EC50 is > 35 µM (inactive).

Turning to `O=C1CCCC(O)=C1C=Nc1cccc(C(F)(F)F)c1`, the EC50 is > 35 µM (inactive).

For `O=C(O)c1ccc(N2C(=O)CSC2=S)cc1`, the EC50 was > 35 µM (inactive).

On to `CCOC(=O)N1CCC(Nc2c(-c3ccccc3)c(=O)c2=O)CC1`, for which the EC50 is > 35 µM (inactive).

With `Cc1ccc(NC(=S)N(Cc2cccs2)Cc2cc3cccc(C)c3[nH]c2=O)cc1`, the EC50 is > 35 µM (inactive).

`Cn1c(N/N=C/c2cc3ccccc3nc2Cl)nc2ccccc21`: the EC50 is 18.1 µM.

As for `CCCC1CCC(=C(C#N)C(N)=O)CC1` (stereo unspecified), the EC50 is > 35 µM (inactive).

With `CC1CCN(Cc2c(C(=O)N/N=C/c3ccccc3O)nnn2-c2nonc2N)CC1`, the EC50 was > 35 µM (inactive).

Regarding `CCN1CCN(c2ncnc3ccc(Br)cc23)CC1`, the EC50 was > 35 µM (inactive).

For the compound `CC(C)(C)NC(=O)CN(Cc1ccc2c(c1)OCO2)C(=O)CNS(=O)(=O)c1ccc(F)cc1`, the EC50 is > 35 µM (inactive).

With `CC1=NC(C#N)=C(C#N)NC(C)(C)C1`, the EC50 is > 35 µM (inactive).

For `OCc1ccc(N=Nc2ccccc2)cc1`, the EC50 was > 35 µM (inactive).

On to `CCOc1ccc2c(C)c(Cl)c(=O)oc2c1`, for which the EC50 was > 35 µM (inactive).

Consider `Oc1ccc2ccccc2c1/C=N/Nc1nnc(-c2ncc[nH]2)c2ccccc12`, for which the EC50 is 8.6 µM.

Consider `Cc1occc1C(=O)N/N=C/c1c(O)ccc2ccccc12`, for which the half-maximal effective concentration (EC50) is 11.7 µM.

Regarding `COc1ccc(/C=C/C(=O)NCCSCc2ccco2)cc1OC`, the EC50 is > 35 µM (inactive).

Consider `Cc1cc(C)cc(N(CC(=O)Nc2ccccc2C(=O)N2CCOCC2)S(C)(=O)=O)c1`, for which the EC50 was > 35 µM (inactive).

With `CC(C)C(=O)N1CCN(c2ccc(NC(=O)COc3ccccc3[N+](=O)[O-])cc2)CC1`, the EC50 is > 35 µM (inactive).

`O=C(CCCCCCC(=O)Nc1ccccc1)NO`: the EC50 was 5.94 µM.

Turning to `O=C(N/N=C(\c1ccccc1)c1ccccn1)c1cccc([N+](=O)[O-])c1`, the EC50 was 0.629 µM.

Turning to `CC(C(=O)Nc1ccccc1-c1ccccc1)N1CCN(C(=O)c2ccccc2)CC1` (stereo unspecified), the EC50 is > 35 µM (inactive).

In the case of `CN(Cc1cccc(C(F)(F)F)c1)C(=O)C1CCC(=O)N(CC2CCCCC2)C1` (stereo unspecified), the EC50 is > 35 µM (inactive).

For the compound `CCN1CN(CCc2ccccc2)CNC1=S`, the EC50 is > 35 µM (inactive).

With `Cc1ccc2[nH]c(C(=O)N/N=C/c3ccccc3O)c(C)c2c1`, the EC50 is 7.06 µM.

`Oc1ccc(-c2cn3ccccc3n2)cc1O`: the EC50 is > 35 µM (inactive).

For `Cc1ccc(NC(=S)N/C(=N/S(=O)(=O)c2ccccc2)c2ccccc2)cc1`, the EC50 was > 35 µM (inactive).

Consider `Cc1ccc(CN2[C@@H](CC(C)C)COCCS2(=O)=O)cc1`, for which the EC50 is > 35 µM (inactive).

Consider `Cc1ccc(/C=N/NC(=O)CN2CCN(Cc3ccccc3Cl)CC2)o1`, for which the EC50 was > 35 µM (inactive).

Regarding `COC(=O)C(NC(=O)c1c(C)nn(C)c1Cl)c1ccccc1` (stereo unspecified), the EC50 was > 35 µM (inactive).

Regarding `CCOC(=O)/C(N=Nc1ccc(F)cc1)=C(/O)c1ccc([N+](=O)[O-])cc1`, the EC50 was > 35 µM (inactive).

As for `COc1ccc2[nH]c(C(=O)N/N=C/c3ccc(O)cc3O)cc2c1`, the EC50 is 8.67 µM.

Take `COc1ccc(Nc2nc(N/N=C/c3ccc(N(C)C)cc3)nc(C)c2[N+](=O)[O-])cc1`: the EC50 is > 35 µM (inactive).

Consider `CCOC(=O)c1c(S(=O)(=O)NCc2ccc(C)o2)c(C)n(C)c1C`, for which the EC50 was > 35 µM (inactive).

For the compound `CCN(CC)c1ccc(/C=N/NC(=O)c2cccc(S(=O)(=O)N3CCOCC3)c2)c(O)c1`, the EC50 was 1.13 µM.

Consider `O=C(NCc1ccccc1)C(=O)c1cn(CC(=O)N2CCOCC2)c2ccccc12`, for which the EC50 was > 35 µM (inactive).

As to `CCC1CCc2sc(C(=O)O)cc2C1` (stereo unspecified), the EC50 was > 35 µM (inactive).

As to `N#Cc1ccccc1S(=O)(=O)N1CCN(c2cnccn2)CC1`, the EC50 was > 35 µM (inactive).

Regarding `Cc1ccc(S(=O)(=O)c2nc(-c3ccccc3Cl)oc2N(C)C)cc1`, the EC50 is > 35 µM (inactive).

For `O/N=C1/C2C3CC4C5C3C1C5C1(OCCO1)C42` (stereo unspecified), the EC50 was > 35 µM (inactive).

Turning to `Cc1nc(C(=O)Nc2ccc(Cl)cc2Cl)nn1-c1cc(OC(C)C)c(Cl)cc1Cl`, the EC50 is > 35 µM (inactive).

For the compound `Cc1ccc(C)c(OCC(=O)O/N=C(\N)c2cccc([N+](=O)[O-])c2)c1`, the EC50 was > 35 µM (inactive).

In the case of `C/C(=C\C(=O)OCC(=O)NCc1ccccc1)C(=O)OCC(=O)NCc1ccccc1`, the EC50 was > 35 µM (inactive).

On to `O=C(N/N=C/c1c(O)ccc2ccccc12)c1cccnc1`, for which the EC50 is 0.678 µM.

For `CCOc1ccccc1CN1CCN(S(C)(=O)=O)CC1`, the EC50 was > 35 µM (inactive).

Regarding `Cc1ccc(C)c(OCC(=O)N2CCN(Cc3ccc4c(c3)OCO4)CC2)c1`, the EC50 is > 35 µM (inactive).

As to `COc1ccc(CC(NC(C)=O)C(=O)NC2CCN(C(=O)c3cccc(Cl)c3)CC2)cc1OC` (stereo unspecified), the EC50 was > 35 µM (inactive).

For `CNc1c2c(nn1C)CCCC2`, the EC50 was > 35 µM (inactive).

For `COc1ccccc1C(=O)Nc1ccccc1SC(=O)c1ccccc1OC`, the EC50 is > 35 µM (inactive).

`ON=C1c2cc(OCCN3CCCCC3)ccc2-c2ccc(OCCN3CCCCC3)cc21`: the EC50 is 8.97 µM.

As to `Cc1ccc(S(=O)(=O)N2CCOC23CCN(C(=O)c2cc(Cl)ccc2Cl)CC3)cc1`, the EC50 was > 35 µM (inactive).

As to `COc1ccc2oc(=O)c(C(=O)NC3CCCCCC3)cc2c1`, the EC50 is > 35 µM (inactive).

As to `Cc1c(Cl)c([N+](=O)[O-])nn1CC(=O)NC12CC3CC(CC(C3)C1)C2`, the EC50 was > 35 µM (inactive).

Regarding `Cc1cc(C)[n+](Cc2ccccc2)cc1C(N)=O`, the EC50 was > 35 µM (inactive).

`COc1ccc(OC)c2[nH]c(C(=O)N/N=C/c3ccccc3O)cc12`: the half-maximal effective concentration (EC50) was 6.61 µM.

On to `COc1ccccc1CNC(=O)c1cccc(NC(=O)c2ccccc2)c1`, for which the EC50 is > 35 µM (inactive).

As for `COC(=O)C1C(=O)N2CCCSC2=C(C#N)C1c1cccs1` (stereo unspecified), the EC50 was > 35 µM (inactive).

As for `Cc1ccc(/C=N\Nc2nc3ccc(Cl)cc3[nH]2)o1`, the EC50 was > 35 µM (inactive).
